Test results from article PMC5218480 (PLoS ONE, 2017).

System: MV-4-11 cells
Test: Gene expression microarray analysis (Affymetrix PrimeView) and GSEA
Assay type: cell-based, human
Parameters: RFU PODN (11730768_x_at) / Fold change /veh PODN (11730768_x_at) / RFU LINC00158 (11744669_a_at) / Fold change /veh LINC00158 (11744669_a_at) / RFU DUSP10 (11751237_a_at) / Fold change /veh DUSP10 (11751237_a_at) / RFU ID3 (11757404_x_at) / Fold change /veh ID3 (11757404_x_at) / RFU PLEKHG5 (11737974_s_at) / Fold change /veh PLEKHG5 (11737974_s_at) / RFU LRRC4B (11730491_at) / Fold change /veh LRRC4B (11730491_at) / RFU GIMAP4 (11747438_a_at) / Fold change /veh GIMAP4 (11747438_a_at) / RFU KRT8 (11758183_x_at) / Fold change /veh KRT8 (11758183_x_at) / RFU CNN1 (11734310_a_at) / Fold change /veh CNN1 (11734310_a_at) / RFU VPS37D (11726825_at) / Fold change /veh VPS37D (11726825_at) / RFU C10orf10 (11716522_x_at) / Fold change /veh C10orf10 (11716522_x_at) / RFU KIR2DL2 /// KIR2DL4 /// KIR2DL5A /// KIR2DL5B /// KIR2DS1 /// KIR2DS2 /// KIR2DS3 /// KIR2DS4 /// KIR3DL3 /// KIR3DL3 /// KIR3DS1 (11738374_at) / Fold change /veh KIR2DL2 /// KIR2DL4 /// KIR2DL5A /// KIR2DL5B /// KIR2DS1 /// KIR2DS2 /// KIR2DS3 /// KIR2DS4 /// KIR3DL3 /// KIR3DL3 /// KIR3DS1 (11738374_at) / RFU C1QL1 (11718748_at) / Fold change /veh C1QL1 (11718748_at) / RFU TMPRSS4 (11747572_a_at) / Fold change /veh TMPRSS4 (11747572_a_at) / RFU HAMP (11756126_x_at) / Fold change /veh HAMP (11756126_x_at) / RFU RNFT2 (11725882_a_at) / Fold change /veh RNFT2 (11725882_a_at) / RFU NR4A2 (11747474_a_at) / Fold change /veh NR4A2 (11747474_a_at) / RFU ABCC12 (11746883_a_at) / Fold change /veh ABCC12 (11746883_a_at) / RFU TMEM136 (11760407_x_at) / Fold change /veh TMEM136 (11760407_x_at) / RFU CLDN22 /// WWC2 (11732394_at) / Fold change /veh CLDN22 /// WWC2 (11732394_at) / RFU HLA-DPB1 (11760878_x_at) / Fold change /veh HLA-DPB1 (11760878_x_at) / RFU SPINT1 (11716480_a_at) / Fold change /veh SPINT1 (11716480_a_at) / RFU GAP43 (11754022_s_at) / Fold change /veh GAP43 (11754022_s_at) / RFU A4GNT (11735810_at) / Fold change /veh A4GNT (11735810_at) / RFU PRB3 (11715151_x_at) / Fold change /veh PRB3 (11715151_x_at) / RFU TUBB4B (11761932_at) / Fold change /veh TUBB4B (11761932_at) / RFU CAPN14 (11732068_a_at) / Fold change /veh CAPN14 (11732068_a_at) / RFU TMCC2 (11721928_a_at) / Fold change /veh TMCC2 (11721928_a_at) / RFU IRGQ (11745062_a_at) / Fold change /veh IRGQ (11745062_a_at) / RFU FAM174B (11720279_a_at) / Fold change /veh FAM174B (11720279_a_at) / RFU TMPRSS4 (11748680_a_at) / Fold change /veh TMPRSS4 (11748680_a_at) / RFU FAM212B (11763350_a_at) / Fold change /veh FAM212B (11763350_a_at) / RFU PLEKHG5 (11743358_a_at) / Fold change /veh PLEKHG5 (11743358_a_at) / RFU ZSCAN30 (11745921_a_at) / Fold change /veh ZSCAN30 (11745921_a_at) / RFU CMKLR1 (11741424_a_at) / Fold change /veh CMKLR1 (11741424_a_at) / RFU LOC101060620 /// MAPK8IP1 (11723275_at) / Fold change /veh LOC101060620 /// MAPK8IP1 (11723275_at) / RFU SPTSSB (11747773_x_at) / Fold change /veh SPTSSB (11747773_x_at) / RFU PRSS12 (11739890_at) / Fold change /veh PRSS12 (11739890_at) / RFU BIN1 (11741810_x_at) / Fold change /veh BIN1 (11741810_x_at) / RFU WNT11 (11732464_a_at) / Fold change /veh WNT11 (11732464_a_at) / RFU C10orf10 (11716521_a_at) / Fold change /veh C10orf10 (11716521_a_at) / RFU C5orf56 (11738089_at) / Fold change /veh C5orf56 (11738089_at) / RFU CYB561 (11721691_x_at) / Fold change /veh CYB561 (11721691_x_at) / RFU ANKRD19P (11752326_a_at) / Fold change /veh ANKRD19P (11752326_a_at) / RFU OR2T12 /// OR2T33 /// OR2T8 (11738714_s_at) / Fold change /veh OR2T12 /// OR2T33 /// OR2T8 (11738714_s_at) / RFU VCAN (11748164_a_at) / Fold change /veh VCAN (11748164_a_at) / RFU JSRP1 (11732532_at) / Fold change /veh JSRP1 (11732532_at) / RFU KRTAP10-11 (11738290_x_at) / Fold change /veh KRTAP10-11 (11738290_x_at) / RFU MYO3A (11730013_a_at) / Fold change /veh MYO3A (11730013_a_at) / RFU EBF3 (11725865_a_at) / Fold change /veh EBF3 (11725865_a_at) / RFU CAMK2N1 (11719241_x_at) / Fold change /veh CAMK2N1 (11719241_x_at) / RFU C5orf56 (11738088_a_at) / Fold change /veh C5orf56 (11738088_a_at) / RFU OLFML3 (11715873_a_at) / Fold change /veh OLFML3 (11715873_a_at) / RFU LOC100653217 /// NTM (11731650_a_at) / Fold change /veh LOC100653217 /// NTM (11731650_a_at) / RFU MAPK11 (11762145_a_at) / Fold change /veh MAPK11 (11762145_a_at) / RFU FIZ1 (11724087_x_at) / Fold change /veh FIZ1 (11724087_x_at) / RFU OASL (11726364_x_at) / Fold change /veh OASL (11726364_x_at) / RFU SOX15 (11748057_x_at) / Fold change /veh SOX15 (11748057_x_at) / RFU CD79A (11719716_a_at) / Fold change /veh CD79A (11719716_a_at) / RFU HIST1H1D (11736915_at) / Fold change /veh HIST1H1D (11736915_at) / RFU CASKIN2 (11723855_a_at) / Fold change /veh CASKIN2 (11723855_a_at) / RFU LOC730098 (11760151_x_at) / Fold change /veh LOC730098 (11760151_x_at) / RFU OR4N2 (11742367_at) / Fold change /veh OR4N2 (11742367_at) / RFU PRRT2 (11749266_a_at) / Fold change /veh PRRT2 (11749266_a_at) / RFU SNX32 (11753110_a_at) / Fold change /veh SNX32 (11753110_a_at) / RFU CDHR5 (11726645_a_at) / Fold change /veh CDHR5 (11726645_a_at) / RFU RCAN1 (11760418_a_at) / Fold change /veh RCAN1 (11760418_a_at) / RFU FAM167A (11723789_a_at) / Fold change /veh FAM167A (11723789_a_at) / RFU FAM26E (11764081_at) / Fold change /veh FAM26E (11764081_at) / RFU ISYNA1 (11749810_s_at) / Fold change /veh ISYNA1 (11749810_s_at) / RFU ACY1 (11761880_at) / Fold change /veh ACY1 (11761880_at) / RFU 11764098_at / Fold change /veh 11764098_at / RFU SAMD14 (11745864_x_at) / Fold change /veh SAMD14 (11745864_x_at) / RFU NPB (11741838_a_at) / Fold change /veh NPB (11741838_a_at) / RFU TMPRSS6 (11731388_a_at) / Fold change /veh TMPRSS6 (11731388_a_at) / RFU KRTAP10-2 (11738614_at) / Fold change /veh KRTAP10-2 (11738614_at) / RFU ARHGAP8 /// PRR5-ARHGAP8 (11727945_x_at) / Fold change /veh ARHGAP8 /// PRR5-ARHGAP8 (11727945_x_at) / RFU KRTAP5-7 /// NADSYN1 (11734609_at) / Fold change /veh KRTAP5-7 /// NADSYN1 (11734609_at) / RFU RASL12 (11751679_a_at) / Fold change /veh RASL12 (11751679_a_at) / RFU CDKN2B (11736163_a_at) / Fold change /veh CDKN2B (11736163_a_at) / RFU PRF1 (11729649_at) / Fold change /veh PRF1 (11729649_at) / RFU, ZNF638 /// ZNF638-IT1 / Fold change vs veh, ZNF638 /// ZNF638-IT1 / RFU, PANK3 / Fold change vs veh, PANK3 / RFU, SH3YL1 / Fold change vs veh, SH3YL1 / RFU, ZEB2 / Fold change vs veh, ZEB2 / RFU, NRIP1 / Fold change vs veh, NRIP1 / RFU, PTTG1IP / Fold change vs veh, PTTG1IP / RFU, CAPN2 / Fold change vs veh, CAPN2 / RFU, MED14 / Fold change vs veh, MED14 / RFU, SNORA58 / Fold change vs veh, SNORA58 / RFU, C1orf63 / Fold change vs veh, C1orf63 / RFU, LRRFIP1 / Fold change vs veh, LRRFIP1 / RFU, NDUFAF7 / Fold change vs veh, NDUFAF7 / RFU, SLC12A2 / Fold change vs veh, SLC12A2 / RFU, IBTK / Fold change vs veh, IBTK / RFU, ESF1 / Fold change vs veh, ESF1 / Fold change vs veh, TMEM50B / RFU, TAOK1 / Fold change vs veh, TAOK1 / RFU, ACBD3 / Fold change vs veh, ACBD3 / RFU, TMA16 / Fold change vs veh, TMA16 / RFU, RWDD3 / Fold change vs veh, RWDD3 / RFU, BCAT1 / Fold change vs veh, BCAT1 / RFU, EDEM3 / Fold change vs veh, EDEM3 / RFU, TMEM33 / Fold change vs veh, TMEM33 / RFU, WDR75 / Fold change vs veh, WDR75 / RFU, AHCTF1 / Fold change vs veh, AHCTF1 / RFU, TFRC / Fold change vs veh, TFRC / RFU, ZDHHC17 / Fold change vs veh, ZDHHC17 / RFU, NOM1 / Fold change vs veh, NOM1 / RFU, ARL8B / Fold change vs veh, ARL8B / RFU, ZBTB11 / Fold change vs veh, ZBTB11 / RFU, TAMM41 / Fold change vs veh, TAMM41 / RFU, KIAA1704 /// LOC100996395 / Fold change vs veh, KIAA1704 /// LOC100996395 / RFU, ING1 / Fold change vs veh, ING1 / RFU, TRMT61B / Fold change vs veh, TRMT61B / RFU, FUBP3 / Fold change vs veh, FUBP3 / RFU, TP53 / Fold change vs veh, TP53 / RFU, TNKS2 / Fold change vs veh, TNKS2 / RFU, ZFP14 / Fold change vs veh, ZFP14 / RFU, ACTR2 / Fold change vs veh, ACTR2 / RFU, PPP3R1 / Fold change vs veh, PPP3R1 / RFU, PIK3R1 / Fold change vs veh, PIK3R1 / RFU, HNRNPA1 / Fold change vs veh, HNRNPA1 / RFU, RNF170 / Fold change vs veh, RNF170 / RFU, ZNF28 / Fold change vs veh, ZNF28 / RFU, RNGTT / Fold change vs veh, RNGTT / RFU, OGT / Fold change vs veh, OGT / RFU, BRD1 / Fold change vs veh, BRD1 / RFU, MARS / Fold change vs veh, MARS / RFU, ZNF655 / Fold change vs veh, ZNF655 / RFU, FAHD1 / Fold change vs veh, FAHD1 / RFU, BDP1 / Fold change vs veh, BDP1 / RFU, LRRCC1 / Fold change vs veh, LRRCC1 / RFU, ARID1A / Fold change vs veh, ARID1A / RFU, ZNF146 / Fold change vs veh, ZNF146 / RFU, ZNF330 / Fold change vs veh, ZNF330 / RFU, GPN3 / Fold change vs veh, GPN3 / RFU, C9orf123 / Fold change vs veh, C9orf123 / RFU, N4BP2L2 / Fold change vs veh, N4BP2L2 / RFU, ARFIP1 / Fold change vs veh, ARFIP1 / RFU, FAM179B / Fold change vs veh, FAM179B / RFU, BCL10 / Fold change vs veh, BCL10 / RFU, UHRF1BP1L / Fold change vs veh, UHRF1BP1L / RFU, BET1 / Fold change vs veh, BET1 / RFU, CNOT2 / Fold change vs veh, CNOT2 / RFU, ZNF268 / Fold change vs veh, ZNF268 / Fold change vs veh, ZNF507 / RFU, DGCR2 / Fold change vs veh, DGCR2 / RFU, WDSUB1 / Fold change vs veh, WDSUB1 / Fold change vs veh, HSP90B1 /// MIR3652 / RFU, ADSS / Fold change vs veh, ADSS / RFU, GK / Fold change vs veh, GK / RFU, ZNF148 / Fold change vs veh, ZNF148 / RFU, TAF9 / Fold change vs veh, TAF9 / RFU, SLC1A5 / Fold change vs veh, SLC1A5 / RFU, SLMO2 / Fold change vs veh, SLMO2 / RFU, ABCC4 / Fold change vs veh, ABCC4 / RFU, LOC101060439 /// RAP1B / Fold change vs veh, LOC101060439 /// RAP1B / RFU, RFX7 / Fold change vs veh, RFX7 / RFU, GTPBP10 / Fold change vs veh, GTPBP10 / RFU, CNEP1R1 / Fold change vs veh, CNEP1R1 / RFU, BIVM-ERCC5 /// ERCC5 / Fold change vs veh, BIVM-ERCC5 /// ERCC5 / RFU, ILF3 / Fold change vs veh, ILF3 / RFU 11762660_at / Fold change /veh 11762660_at / RFU VCAN (11757783_s_at) / Fold change /veh VCAN (11757783_s_at) / RFU DDX43 (11728927_at) / Fold change /veh DDX43 (11728927_at) / RFU KRT8 (11758188_x_at) / Fold change /veh KRT8 (11758188_x_at) / RFU NKD1 (11759106_at) / Fold change /veh NKD1 (11759106_at) / RFU SRD5A1 (11742802_a_at) / Fold change /veh SRD5A1 (11742802_a_at) / RFU TPSAB1 /// TPSB2 (11721975_s_at) / Fold change /veh TPSAB1 /// TPSB2 (11721975_s_at) / RFU GSTM3 (11746129_a_at) / Fold change /veh GSTM3 (11746129_a_at) / RFU IL23R (11737362_x_at) / Fold change /veh IL23R (11737362_x_at) / RFU TMEM51 (11727254_a_at) / Fold change /veh TMEM51 (11727254_a_at) / RFU PIWIL2 (11732686_x_at) / Fold change /veh PIWIL2 (11732686_x_at) / RFU ORM1 (11744905_x_at) / Fold change /veh ORM1 (11744905_x_at) / RFU CCDC152 (11743942_at) / Fold change /veh CCDC152 (11743942_at) / RFU ECM1 (11717891_a_at) / Fold change /veh ECM1 (11717891_a_at) / RFU IL23R (11748794_a_at) / Fold change /veh IL23R (11748794_a_at) / RFU TNFAIP8L3 (11732012_x_at) / Fold change /veh TNFAIP8L3 (11732012_x_at) / RFU MBOAT4 (11741988_at) / Fold change /veh MBOAT4 (11741988_at) / RFU 11764193_at / Fold change /veh 11764193_at / RFU TMEM53 (11763286_at) / Fold change /veh TMEM53 (11763286_at) / RFU MAGEB2 (11727129_at) / Fold change /veh MAGEB2 (11727129_at) / RFU TMEM200A (11744735_a_at) / Fold change /veh TMEM200A (11744735_a_at) / RFU CCDC152 (11751479_a_at) / Fold change /veh CCDC152 (11751479_a_at) / RFU FAM211A (11726209_a_at) / Fold change /veh FAM211A (11726209_a_at) / RFU RGS16 (11746705_a_at) / Fold change /veh RGS16 (11746705_a_at) / RFU VCAN (11755009_s_at) / Fold change /veh VCAN (11755009_s_at) / RFU RHOB (11743442_s_at) / Fold change /veh RHOB (11743442_s_at) / RFU RGS16 (11720943_a_at) / Fold change /veh RGS16 (11720943_a_at) / RFU RGS16 (11720944_at) / Fold change /veh RGS16 (11720944_at) / RFU, VPS4B / Fold change vs veh, VPS4B / RFU, CREB1 / Fold change vs veh, CREB1 / RFU, DNAJC13 / Fold change vs veh, DNAJC13 / RFU, GNAQ / Fold change vs veh, GNAQ / RFU, CDK5R1 / Fold change vs veh, CDK5R1 / RFU, ZRANB3 / Fold change vs veh, ZRANB3 / RFU, CUL4A / Fold change vs veh, CUL4A / RFU, CCNY / Fold change vs veh, CCNY / RFU, UFL1 / Fold change vs veh, UFL1 / RFU, COG3 / Fold change vs veh, COG3 / RFU, DIAPH2 / Fold change vs veh, DIAPH2 / RFU, SKA2 / Fold change vs veh, SKA2 / RFU, AFF3 / Fold change vs veh, AFF3 / RFU, LMF1 / Fold change vs veh, LMF1 / RFU, IPO11 / Fold change vs veh, IPO11 / RFU, DFFB / Fold change vs veh, DFFB / RFU, FOXP1 / Fold change vs veh, FOXP1 / RFU, CARD8 / Fold change vs veh, CARD8 / RFU, STRN3 / Fold change vs veh, STRN3 / RFU, ADK / Fold change vs veh, ADK / RFU, RASSF2 / Fold change vs veh, RASSF2 / RFU, WIPF1 / Fold change vs veh, WIPF1 / RFU, LARP1B / Fold change vs veh, LARP1B / RFU, RASA1 / Fold change vs veh, RASA1 / RFU, RB1 / Fold change vs veh, RB1 / RFU, PPFIA1 / Fold change vs veh, PPFIA1 / RFU, MAT2A / Fold change vs veh, MAT2A / RFU, CCT5 / Fold change vs veh, CCT5 / RFU, WDR92 / Fold change vs veh, WDR92 / RFU, CUX1 / Fold change vs veh, CUX1 / RFU, TTC7A / Fold change vs veh, TTC7A / RFU, TMEM135 / Fold change vs veh, TMEM135 / RFU, DEPTOR / Fold change vs veh, DEPTOR / RFU, CPM / Fold change vs veh, CPM / RFU, DNAJB6 / Fold change vs veh, DNAJB6 / RFU, CACNA2D3 / Fold change vs veh, CACNA2D3 / RFU, DTX4 / Fold change vs veh, DTX4 / RFU, TFCP2 / Fold change vs veh, TFCP2 / RFU, GMCL1 /// GMCL1P1 / Fold change vs veh, GMCL1 /// GMCL1P1 / RFU, AEBP2 / Fold change vs veh, AEBP2 / RFU, SNHG1 /// SNORD22 /// SNORD25 /// SNORD26 /// SNORD27 /// SNORD28 /// SNORD29 /// SNORD31 / Fold change vs veh, SNHG1 /// SNORD22 /// SNORD25 /// SNORD26 /// SNORD27 /// SNORD28 /// SNORD29 /// SNORD31 / Fold change (Aza/veh), C12orf56 (ProbeSet 11735607_a_at) / Fold change (ACY-1035/veh), C12orf56 (ProbeSet 11735607_a_at) / Fold change (Aza/veh), FGFR1OP (ProbeSet 11751329_s_at) / Fold change (ACY-1035/veh), FGFR1OP (ProbeSet 11751329_s_at) / Fold change (Aza/veh), VPS36 (ProbeSet 11739960_a_at) / Fold change (ACY-1035/veh), VPS36 (ProbeSet 11739960_a_at) / RFU SYPL1 (11715823_x_at) / Fold change /veh SYPL1 (11715823_x_at) / RFU IGFBP7 (11715501_s_at) / Fold change /veh IGFBP7 (11715501_s_at) / RFU REEP3 (11722064_at) / Fold change /veh REEP3 (11722064_at) / RFU IGLL1 (11728026_x_at) / Fold change /veh IGLL1 (11728026_x_at): dose or concentration left out as unconfirmed
Conditions: MV-4-11 cells, 48 hours

Nc1ccc(-c2cccs2)cc1NC(=O)c1ccc2c(c1)cc(C1CC1)n2CCN1CCOCC1 [ACY-1035]
Fold change /veh KRTAP10-11 (11738290_x_at): 1.00
